# Assay results from PubChem BioAssay (NCI).
#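 Growth conditions: 96-well plates. Treatment: test compound, 48 hours, 5 concentrations. Analysis: linear interpolation between bracketing concentrations; unreached endpoints set to highest concentration. Here, GI50 denotes the concentration required for 50% inhibition of growth. TGI denotes the concentration required for complete inhibition of growth.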
# Experiments:
# Assay in all cases: NCI anticancer screen, dose series, 48 h
# NCI-H522 lung = test system: NCI-H522 lung
# BT-549 breast = test system: BT-549 breast
# SNB-75 CNS = test system: SNB-75 CNS
# HL-60(TB) leukemia = test system: HL-60(TB) leukemia
# A549 NSCLC = test system: A549 NSCLC
# PC-3 prostate = test system: PC-3 prostate
# RPMI-8226 leukemia = test system: RPMI-8226 leukemia
# SF-295 CNS = test system: SF-295 CNS
# SK-OV-3 ovarian = test system: SK-OV-3 ovarian
# NCI-H460 lung = test system: NCI-H460 lung
SMILES,GI50 (NCI-H522 lung) [µM],TGI (NCI-H522 lung) [µM],GI50 (BT-549 breast) [µM],TGI (BT-549 breast) [µM],GI50 (SNB-75 CNS) [nM],TGI (SNB-75 CNS) [µM],GI50 (HL-60(TB) leukemia) [µM],TGI (HL-60(TB) leukemia) [µM],GI50 (A549 NSCLC) [µM],TGI (A549 NSCLC) [µM],GI50 (PC-3 prostate) [nM],TGI (PC-3 prostate) [µM],GI50 (RPMI-8226 leukemia) [µM],TGI (RPMI-8226 leukemia) [µM],GI50 (SF-295 CNS) [µM],TGI (SF-295 CNS) [µM],GI50 (SK-OV-3 ovarian) [µM],TGI (SK-OV-3 ovarian) [µM],GI50 (NCI-H460 lung) [nM],TGI (NCI-H460 lung) [µM]
CCN(CC)c1ccc2c(c1)Oc1nc(N)c(C#N)c(N)c1C2Sc1ccc(OC)cc1 (stereo not given),1.79,3.38,1.53,2.95,1510,2.89,2.28,6.44,1.99,3.59,1710,3.38,1.96,5.02,1.93,3.6,1.92,3.38,1940,3.81
Nc1ccccc1NC(=O)c1ccc(CCCC(=O)Nc2ccc(C3CC3N)cc2)cc1 (stereo not given),0.673,5.12,3.09,37.9,1890,50.4,0.725,65.2,4.38,> 100,2320,95.3,2.79,24.2,1.96,9.43,2.15,42.4,2630,> 100
Clc1ccc(C2=Nn3c(nnc3-c3cc(Cl)cc(Cl)c3Cl)SC2)cc1,12.7,46.2,17.6,47.7,14800,34.2,7.26,30.7,56.5,> 100,73400,> 100,44.3,> 100,11,29.3,17.6,44.5,41300,> 100
OC(COc1ccc(F)cc1)Cn1cnc2c(Cl)ncnc21 (stereo not given),> 100,> 100,> 100,> 100,> 100000,> 100,36.3,> 100,> 100,> 100,> 100000,> 100,39.7,> 100,> 100,> 100,> 100,> 100,> 100000,> 100
C[C@@H](CN1CC(=O)NC(=O)C1)N1CC(=O)NC(=O)C1,,518,,783,,929,,1300,,692,,1450,,2300,,779,,1870,,553
Cc1cc(O)c(C2=NN(c3ccc(S(N)(=O)=O)cc3)C(c3ccc(N(C)C)cc3)C2)c(C)c1Cl (stereo not given),18.6,48.4,15.4,43.3,17000,42.2,20.3,50,14.7,43.5,9210,23.9,7.25,37.5,19.2,44.4,27.4,90.8,12200,27.4
CC(C)CC(=O)Nc1n[nH]c2c1CN(C(=O)C1CCN(C)CC1)C2(C)C,0.467,3.99,3.86,> 10,1020,4.14,0.513,4.97,1.15,> 10,1330,> 10,0.506,5.97,1.35,> 10,2.53,> 10,309,> 10
O=C(/C=N/O)Nc1cc(Cl)c(Cl)cc1Cl,,67.8,,89.3,,66.6,,53.8,,> 100,,> 100,,88.8,,87.6,,> 100,,> 100
CN1CCN(c2ccc(Nc3nc(N)c(C(=O)c4ccc5c(c4)OCCO5)s3)cc2)CC1,4.32,9.84,4.71,9.46,2280,6,4.62,11.6,4.3,15.7,1770,8.47,3.85,11.6,3.65,10,4.36,10.6,2850,9.75
